The assay deals with compound-treated mice. Nature of the assay: Neuropharmacological assay (SmartCube): behavioral activity signature and minimal effective dose. The assay is classed as in vivo. The following applies: for minimal effective dose: Mus musculus, ip, MED = dose having 50% or more total activity, read-out: Potency: minimal effective dose (MED); for AD: ADHD (probability of activity signature) / AG: analgesic (probability of activity signature) / AX: anxiolytic (probability of activity signature) / CE: cognitive enhancer (probability of activity signature) / DP: anti-depressant (probability of activity signature) / MS: mood stabilizer (probability of activity signature) / PS: anti-psychotic (probability of activity signature) / SD: sedative hypnotic (probability of activity signature) / UN: uncharacterized CNS activity (probability of activity signature): i.p. 15 min before test, most efficacious dose(s). The gist of the method:
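Video-recorded behavior is compared algorithmically against a reference-compound database, yielding class probabilities (best dose reported). Compounds given i.p. in NMP/PEG/propylene glycol 15 min pre-test at 3 doses; potency as MED, the dose (mpk, range usually 0.3–30) reaching ≥50% total activity.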

`Cc1ccc2c(c1)CCOCC2N.Cl` (stereo not drawn) [Example 36]: the minimal effective dose was 3 to 10 mg/kg, the “AD: ADHD (probability of activity signature)” value (from here on “AD: ADHD”) is given as “+ (LOQ ≤ + <5%)”, the “AG: analgesic (probability of activity signature)” value (shortened to “AG: analgesic”) is “++ (5% ≤ ++ <25%)” and the “AX: anxiolytic (probability of activity signature)” value (“AX: anxiolytic” for short) is reported as “++ (5% ≤ ++ <25%)”. The “CE: cognitive enhancer (probability of activity signature)” value (“CE: cognitive enhancer” for short) is reported as “+++ (25% ≤ +++ <50%)”, the “DP: anti-depressant (probability of activity signature)” value (“DP: anti-depressant” for short) is given as “++ (5% ≤ ++ <25%)”, the “MS: mood stabilizer (probability of activity signature)” value (from here on “MS: mood stabilizer”) was “+ (LOQ ≤ + <5%)” and the “PS: anti-psychotic (probability of activity signature)” value (from here on “PS: anti-psychotic”) was “++ (5% ≤ ++ <25%)”. The “SD: sedative hypnotic (probability of activity signature)” value (“SD: sedative hypnotic” for short) is “++ (5% ≤ ++ <25%)” and the “UN: uncharacterized CNS activity (probability of activity signature)” value (“UN: uncharacterized CNS activity” below) is on record as “++ (5% ≤ ++ <25%)”.
Turning to `Cc1cccc2c1COCCC2N.Cl` (stereo not drawn) [Example 37], the minimal effective dose fell in the range of 10 to 30 mg/kg, the “AD: ADHD” value was “+ (LOQ ≤ + <5%)”, the “AG: analgesic” value is on record as “++ (5% ≤ ++ <25%)” and the “AX: anxiolytic” value is “++ (5% ≤ ++ <25%)”. Further, the “CE: cognitive enhancer” value is given as “++ (5% ≤ ++ <25%)”, the “DP: anti-depressant” value was “+ (LOQ ≤ + <5%)”, the “MS: mood stabilizer” value was “+ (LOQ ≤ + <5%)” and the “PS: anti-psychotic” value is reported as “++ (5% ≤ ++ <25%)”. The “SD: sedative hypnotic” value is listed as “+ (LOQ ≤ + <5%)” and the “UN: uncharacterized CNS activity” value was “+++ (25% ≤ +++ <50%)”.
With `Cl.NC1CCOCc2cc(Cl)ccc21` (stereo not drawn) [Example 38], the minimal effective dose lay in the range of 10 to 30 mg/kg, the “AD: ADHD” value is “+ (LOQ ≤ + <5%)”, the “AG: analgesic” value is on record as “++ (5% ≤ ++ <25%)” and the “AX: anxiolytic” value is “++ (5% ≤ ++ <25%)”. Also, the “CE: cognitive enhancer” value is on record as “+ (LOQ ≤ + <5%)”, the “DP: anti-depressant” value is recorded as “++ (5% ≤ ++ <25%)”, the “MS: mood stabilizer” value is recorded as “+ (LOQ ≤ + <5%)” and the “PS: anti-psychotic” value was “++ (5% ≤ ++ <25%)”. Moreover, the “SD: sedative hypnotic” value is “+ (LOQ ≤ + <5%)” and the “UN: uncharacterized CNS activity” value was “+++ (25% ≤ +++ <50%)”.
With `Cc1cccc2c1C(N)CCOC2.Cl` (stereo not drawn) [Example 39], the minimal effective dose fell in the range of 3 to 10 mg/kg, the “AD: ADHD” value was “+ (LOQ ≤ + <5%)”, the “AG: analgesic” value is “++ (5% ≤ ++ <25%)” and the “AX: anxiolytic” value is reported as “+++ (25% ≤ +++ <50%)”. Besides, the “CE: cognitive enhancer” value was “++ (5% ≤ ++ <25%)”, the “DP: anti-depressant” value was “++ (5% ≤ ++ <25%)”, the “MS: mood stabilizer” value is reported as “+ (LOQ ≤ + <5%)” and the “PS: anti-psychotic” value is listed as “+ (LOQ ≤ + <5%)”. Besides, the “SD: sedative hypnotic” value was “+ (LOQ ≤ + <5%)” and the “UN: uncharacterized CNS activity” value is given as “++++ (50% ≤ ++++)”.
As to `Cl.NC1CCOCc2c(Cl)cccc21` (stereo not drawn) [Example 40], the minimal effective dose was 3 to 10 mg/kg, the “AD: ADHD” value is “+ (LOQ ≤ + <5%)”, the “AG: analgesic” value is reported as “++ (5% ≤ ++ <25%)” and the “AX: anxiolytic” value is recorded as “+++ (25% ≤ +++ <50%)”. Also, the “CE: cognitive enhancer” value is recorded as “++ (5% ≤ ++ <25%)”, the “DP: anti-depressant” value is on record as “+ (LOQ ≤ + <5%)”, the “MS: mood stabilizer” value is “+ (LOQ ≤ + <5%)” and the “PS: anti-psychotic” value was “++ (5% ≤ ++ <25%)”. In addition, the “SD: sedative hypnotic” value is given as “+ (LOQ ≤ + <5%)” and the “UN: uncharacterized CNS activity” value is recorded as “++ (5% ≤ ++ <25%)”.
As to `Cl.NC1CCOCc2cccc(Cl)c21` (stereo not drawn) [Example 41], the minimal effective dose fell in the range of 10 to 30 mg/kg, the “AD: ADHD” value is “+ (LOQ ≤ + <5%)”, the “AG: analgesic” value is “++ (5% ≤ ++ <25%)” and the “AX: anxiolytic” value was “++ (5% ≤ ++ <25%)”. Moreover, the “CE: cognitive enhancer” value is on record as “++ (5% ≤ ++ <25%)”, the “DP: anti-depressant” value was “++ (5% ≤ ++ <25%)”, the “MS: mood stabilizer” value is given as “+ (LOQ ≤ + <5%)” and the “PS: anti-psychotic” value is listed as “+ (LOQ ≤ + <5%)”. For the same compound, the “SD: sedative hypnotic” value is given as “+ (LOQ ≤ + <5%)” and the “UN: uncharacterized CNS activity” value is “+++ (25% ≤ +++ <50%)”.
Consider `Cc1ccc2c(c1C)C(N)COC2.Cl` (stereo not drawn) [Example 42, 5,6-Dimethylisochroman-4-amine hydrochloride], for which the minimal effective dose is below 3 mg/kg, the “AD: ADHD” value is “+ (LOQ ≤ + <5%)”, the “AG: analgesic” value was “+++ (25% ≤ +++ <50%)” and the “AX: anxiolytic” value is listed as “++ (5% ≤ ++ <25%)”. Moreover, the “CE: cognitive enhancer” value is recorded as “++ (5% ≤ ++ <25%)”, the “DP: anti-depressant” value is “++ (5% ≤ ++ <25%)”, the “MS: mood stabilizer” value was “+ (LOQ ≤ + <5%)” and the “PS: anti-psychotic” value was “+++ (25% ≤ +++ <50%)”. In addition, the “SD: sedative hypnotic” value was “++ (5% ≤ ++ <25%)” and the “UN: uncharacterized CNS activity” value was “+++ (25% ≤ +++ <50%)”.
Take `Cc1ccc2c(c1C)C(N)CCOC2.Cl` (stereo not drawn) [Example 43, 6,7-Dimethyl-1,3,4,5-tetrahydrobenzo [c]oxepin-5-amine hydrochloride]: the minimal effective dose lay within 10 to 30 mg/kg, the “AD: ADHD” value is listed as “+ (LOQ ≤ + <5%)”, the “AG: analgesic” value is reported as “++ (5% ≤ ++ <25%)” and the “AX: anxiolytic” value is “+++ (25% ≤ +++ <50%)”. The “CE: cognitive enhancer” value is reported as “++ (5% ≤ ++ <25%)”, the “DP: anti-depressant” value was “+ (LOQ ≤ + <5%)”, the “MS: mood stabilizer” value is given as “+ (LOQ ≤ + <5%)” and the “PS: anti-psychotic” value was “++ (5% ≤ ++ <25%)”. Also, the “SD: sedative hypnotic” value is “++ (5% ≤ ++ <25%)” and the “UN: uncharacterized CNS activity” value is “+ (LOQ ≤ + <5%)”.
Turning to `Cl.NC1COCc2ccc(Cl)c(Cl)c21` (stereo not drawn) [Example 44, 5,6-Dichloroisochroman-4-amine hydrochloride], the minimal effective dose is 3 to 10 mg/kg, the “AD: ADHD” value was “+ (LOQ ≤ + <5%)”, the “AG: analgesic” value is given as “++ (5% ≤ ++ <25%)” and the “AX: anxiolytic” value was “+++ (25% ≤ +++ <50%)”. The “CE: cognitive enhancer” value was “++ (5% ≤ ++ <25%)”, the “DP: anti-depressant” value was “++ (5% ≤ ++ <25%)”, the “MS: mood stabilizer” value is given as “+ (LOQ ≤ + <5%)” and the “PS: anti-psychotic” value is given as “++ (5% ≤ ++ <25%)”. Besides, the “SD: sedative hypnotic” value is given as “++ (5% ≤ ++ <25%)” and the “UN: uncharacterized CNS activity” value was “+++ (25% ≤ +++ <50%)”.

One may read the minimal effective dose as the smallest amount tested that counted as effective.

The record behind these values is patent US11077090B2, “Compounds and compositions and uses thereof” (Sunovion Pharmaceuticals Inc., priority 2016, dated 2021).
